The text below walks through data of US20240109915A1, “NOVEL ACC INHIBITORS” (Pfizer Inc., priority 2022, published 2024).

One experiment has as its target recombinant human ACC1 (rhACC1) (Homo sapiens (Human), UniProt Q13085). The experiment in a line: Transcreener ADP detection FP assay, direct inhibition of rhACC1. Particulars: Geomean IC50, n ≥ 2 unless * then n = 1; 50 μM ATP, 30 μM acetyl-CoA. The class given is biochemical. On the procedure: The direct inhibition of ACC1 for the compounds of the present invention was determined using preparations of recombinant human ACC1 (rhACC1) (SEQ ID NO. 1)
Two liters of SF9 cells, infected with recombinant baculovirus containing full length human ACC1 cDNA, were suspended in ice-cold lysis buffer (25 mM Tris, pH 7.5; 150 mM NaCl; 10% glycerol; 5 mM imidazole (EMD Bioscience; Gibbstown, NJ); 2 mM TCEP (BioVectra; Charlottetown, Canada); Benzonase nuclease (10000 U/100 g cell paste; Novagen; Madison, WI); EDTA-free protease inhibitor cocktail (1 tab/50 ml; Roche Diagnostics; Mannheim, Germany). Cells were lysed by 3 cycles of freeze-thaw and centrifuged at 40,000×g for 40 minutes (4° C.). Supernatant was directly loaded onto a HisTrap FF crude column (GE Healthcare; Piscataway, NJ) and eluted with an imidazole gradient up to 0.5 M over 20 column volumes (CV). ACC1-containing fractions were pooled and diluted 1:5 with 25 mM Tris, pH 7.5, 2 mM TCEP, 10% glycerol and direct loaded onto a CaptoQ (GE Healthcare) column and eluted with an NaCl gradient up to 1 M over 20 CV's. Phosphate groups were removed from purified ACC1 by incubation with lambda phosphatase (100 U/10 μM target protein; New England Biolabs; Beverly, MA) for 14 hours at 4° C.; okadaic acid was added (1 μM final concentration; Roche Diagnostics) to inhibit the phosphatase. Purified ACC1 was exchanged into 25 mM Tris, pH 7.5, 2 mM TCEP, 10% glycerol, 0.5 M NaCl by 6 hour dialysis at 4° C. Aliquots were prepared and frozen at −80° C.
Measurement of rhACC1 Inhibition rhACC1 was assayed in a Corning #3820 (Corning, Tewksbury, MA) 384-well plate using the Transcreener ADP detection FP assay kit (Bellbrook Labs, Madison, Wisconsin) using the manufacturer's recommended conditions for a 50 μM ATP reaction. The final conditions for the assay were 50 mM HEPES, pH 7.2, 10 mM MgCl2, 7.5 mM tripotassium citrate, 2 mM DTT, 0.1 mg/mL BSA, 30 μM acetyl-CoA, 50 μM ATP, and 10 mM KHCO3. Typically, a […] was run for 60 min at room temp, and 10 μl of Transcreener stop and detect buffer was added and the combination incubated at room temp for an overnight (18 hours). The data was acquired on an Envision Fluorescence reader (PerkinElmer) using a 620 excitation Cy5 FP general dual mirror, 620 excitation Cy5 FP filter, 688 emission (S) and a 688 (P) emission filter.
As for `COc1cc(C(=O)N2CCC3(CC2)CC(=O)c2nc(C(C)(C)C)sc2C3)cc2c(C3CC3)nccc12` [Example 99], the half-maximal inhibitory concentration (IC50) (as a rule, the concentration that gives 50% inhibition) amounted to 3.9 nM.
For `Cc1cc(C(=O)N2CCC3(CC2)CC(=O)c2nc(C(C)(C)C)sc2C3)cc2cc[nH]c12` [Example 17, 2-(tert-butyl)-1′-(7-methyl-1H-indole-5-carbonyl)-5H-spiro[benzo[d]thiazole-6,4′-piperidin]-4(7H)-one], the IC50 was determined as 9.6 nM.
Consider `CNc1ccc2c(C)cc(C(=O)N3CCC4(CC3)CC(=O)c3nc(C(C)(C)C)sc3C4)cc2n1` [Example 38, 2-(tert-butyl)-1′-(5-methyl-2-(methylamino)quinoline-7-carbonyl)-5H-spiro[benzo[d]thiazole-6,4′-piperidin]-4(7H)-one], for which the IC50 stood at 4.9 nM.
The same measure, in the same setting: for `CNc1ccc2c(C)cc(C(=O)N3CCC4(CC3)CC(=O)c3nc(C(C)C)sc3C4)cc2n1` [Example 8, 2-isopropyl-1′-(5-methyl-2-(methylamino)quinoline-7-carbonyl)-5H-spiro[benzo[d]thiazole-6,4′-piperidin]-4(7H)-one] the value was 5.5 nM; for `CSc1cnc2c(C)cc(C(=O)N3CCC4(CC3)CC(=O)c3nc(C(C)(C)C)sc3C4)cc2c1` [Example 21, 2-(tert-butyl)-1′-(8-methyl-3-(methylthio)quinoline-6-carbonyl)-5H-spiro[benzo[d]thiazole-6,4′-piperidin]-4(7H)-one], 3.6 nM; for `CCNc1cnc2c(C)cc(C(=O)N3CCC4(CC3)CC(=O)c3nc(C(C)(C)C)sc3C4)cc2c1` [Example 18, 2-(tert-butyl)-1′-(3-(ethylamino)-8-methylquinoline-6-carbonyl)-5H-spiro[benzo[d]thiazole-6,4′-piperidin]-4(7H)-one], 3.2 nM.
Same read-out and setting: with `COc1cc(C(=O)N2CCC3(CC2)CC(=O)c2nc(C(C)C)sc2C3)cc2c(C)nn(C)c12` [Example 10, 2-isopropyl-1′-(7-methoxy-1,3-dimethyl-1H-indazole-5-carbonyl)-5H-spiro[benzo[d]thiazole-6,4′-piperidin]-4(7H)-one] the figure was 10 nM; with `Cc1n[nH]c2c(C)cc(C(=O)N3CCC4(CC3)CC(=O)c3nc(C(C)(C)C)sc3C4)cc12` [Example 45], 7.6 nM; with `CC(C)(C)c1nc2c(s1)CC1(CCN(C(=O)c3ccc(Cl)c4cc[nH]c34)CC1)CC2=O` [Example 89], 6.3 nM.
Consider `Cc1cc(C(=O)N2CCC3(CC2)CC(=O)c2nc(C(C)(C)C)sc2C3)cc2c(Cl)n[nH]c12` [Example 50], for which the concentration for half-maximal inhibition (IC50) turned out to be 5.4 nM.
For `CC(C)Nc1ccc2ccc(C(=O)N3CCC4(CC3)CC(=O)c3nc(C(C)(C)C)sc3C4)cc2n1` [Example 30, 2-(tert-butyl)-1′-(2-(isopropylamino)quinoline-7-carbonyl)-5H-spiro[benzo[d]thiazole-6,4′-piperidin]-4(7H)-one], the IC50 amounted to 4.6 nM.
With `Cc1cccc2ccc(C(=O)N3CCC4(CC3)CC(=O)c3nc(C(C)(C)C)sc3C4)cc12` [Example 91], the IC50 was 14 nM.
As to `COc1cccc2cc(C(=O)N3CCC4(CC3)CC(=O)c3nc(C(C)(C)C)sc3C4)[nH]c12` [Example 60], the IC50 was 27.3 nM.
With `CCc1nc2c(s1)CC1(CCN(C(=O)c3cc(C)c4[nH]nc(C)c4c3)CC1)CC2=O` [Example 6, 1′-(3,7-dimethyl-1H-indazole-5-carbonyl)-2-ethyl-5H-spiro[benzo[d]thiazole-6,4′-piperidin]-4(7H)-one], the concentration for half-maximal inhibition (IC50) was found to be 45.5 nM.
Same read-out and setting: for `COc1cccc2ncc(C(=O)N3CCC4(CC3)CC(=O)c3nc(C(C)(C)C)sc3C4)cc12` [Example 66] the value was 115 nM; for `Cc1ccc(C)c2[nH]c(C(=O)N3CCC4(CC3)CC(=O)c3nc(C(C)(C)C)sc3C4)cc12` [Example 55], 3.5 nM.
As to `COc1cc(C(=O)N2CCC3(CC2)CC(=O)c2nc(C4(C)CC4)sc2C3)cc2c(C)nn(C)c12` [Example 11, 1′-(7-methoxy-1,3-dimethyl-1H-indazole-5-carbonyl)-2-(1-methylcyclopropyl)-5H-spiro[benzo[d]thiazole-6,4′-piperidin]-4(7H)-one], the half-maximal inhibitory concentration (IC50) worked out at 4.5 nM.
Turning to `COc1c(C)cc(C(=O)N2CCC3(CC2)CC(=O)c2nc(C(C)(C)C)sc2C3)c2[nH]ncc12` [Example 36, 2-(tert-butyl)-1′-(4-methoxy-5-methyl-1H-indazole-7-carbonyl)-5H-spiro[benzo[d]thiazole-6,4′-piperidin]-4(7H)-one], the IC50 turned out to be 23.2 nM.
As to `CC(C)(C)c1nc2c(s1)CC1(CCN(C(=O)c3cc(Cl)cc4cc[nH]c34)CC1)CC2=O` [Example 90], the IC50 was determined as 9.6 nM.
`CNc1ccc2c(C)cc(C(=O)N3CCC4(CC3)CC(=O)c3nc(C5(C)CC5)sc3C4)cc2n1` [Example 9, 1′-(5-methyl-2-(methylamino)quinoline-7-carbonyl)-2-(1-methylcyclopropyl)-5H-spiro[benzo[d]thiazole-6,4′-piperidin]-4(7H)-one]: the IC50 was found to be 13.4 nM.
Turning to `Cc1n[nH]c2c(C)cc(C(=O)N3CCC4(CC3)CC(=O)c3nc(C5(C)CC5)sc3C4)cc12` [Example 1, 1′-(3,7-dimethyl-2H-indazole-5-carbonyl)-2-(1-methylcyclopropyl)-5H-spiro[benzo[d]thiazole-6,4′-piperidin]-4(7H)-one], the IC50 turned out to be 10.6 nM.
Turning to `Cc1cc(C(=O)N2CCC3(CC2)CC(=O)c2nc(C(C)(C)C)sc2C3)cc2ccn(C)c12` [Example 76], the IC50 turned out to be 65.4 nM.
Regarding `CN(C)c1cc(C(=O)N2CCC3(CC2)CC(=O)c2nc(C(C)(C)C)sc2C3)cc(-c2ccccc2)n1` [Example 68], the IC50 amounted to 3.9 nM.
In the case of `Cc1n[nH]c2c(C)cc(C(=O)N3CCC4(CC3)CC(=O)c3nc(C(C)(C)C(C)C)sc3C4)cc12` [Example 3, 1′-(3,7-dimethyl-1H-indazole-5-carbonyl)-2-(2,3-dimethylbutan-2-yl)-5H-spiro[benzo[d]thiazole-6,4′-piperidin]-4(7H)-one], the concentration for half-maximal inhibition (IC50) was 7.9 nM.
As for `Cc1cc(C(=O)N2CCC3(CC2)CC(=O)c2nc(C(C)(C)C)sc2C3)cc2[nH]ccc12` [Example 62], the half-maximal inhibitory concentration (IC50) is 3.6 nM.
Turning to `COc1cc(C(=O)N2CCC3(CC2)CC(=O)c2nc(C(C)(C)C)sc2C3)cc2c(C)n[nH]c12` [Example 49], the half-inhibitory concentration (IC50) was determined as 6.4 nM.
On to `CC(C)(C)c1nc2c(s1)CC1(CCN(C(=O)c3cc(Cl)c4cc[nH]c4c3)CC1)CC2=O` [Example 78], for which the IC50 was determined as 7.6 nM.

The subject of the next experiment is SZ95 sebocytes. Kind of experiment: Radiometric measurement of de novo lipogenesis in cultured human sebocytes. It counts as cell-based. The note with it: Geomean IC50, n>2 unless * then n=1, 14C acetate incorporation into lipids (DNL). On the procedure:
SZ95 sebocytes were grown in Human Sebocyte Growth Medium (HSGM) containing Sebomed® basal medium (Sigma-Aldrich, F8205) supplemented with 10% heat-inactivated fetal bovine serum (Gibco, 10100-147), 1% penicillin/streptomycin (Gibco, 15070-063), 1 mM calcium chloride (Fisher, BP9742-10X5) and 5 ng/mL recombinant human epidermal growth factor (Gibco, PHG0311). At 90% confluence, cells were washed with PBS and then detached with 0.05% Trypsin-EDTA (Gibco, 25300054). Prior to starting the assay, cells were centrifuged and resuspended in HSGM containing 5% charcoal-stripped serum (Life Technologies, 12676-029) instead of 10% heat-inactivated fetal bovine serum. Cells were added to 24-well plates at a density of 0.25×10^6 cells/well and incubated overnight at 37° C. to allow the cells to adhere to the culture plate. Cells were then treated with a dose response of compound (30, 1, 0.03, 0.006, 0.0009, 0.0002, and 0.00003 μM) with each concentration tested in duplicate. Briefly, compounds were dissolved in DMSO stocks and diluted 1:1000 into HSGM with charcoal-stripped media. The vehicle control wells were treated with 0.1% DMSO. After a 1-hour preincubation with compound or vehicle at 37° C., 0.25 μCi ^14C sodium acetate (American Radiolabeled Chemicals: ARC, 0173A) was added to each well. Plates were incubated for an additional two hours at 37° C. At the end of the incubation period, cells were removed from incubator, placed on ice, and then washed twice with ice-cold PBS to remove free ^14C-sodium acetate. Plates were sealed and stored at −20° C. until analysis. To induce lysis, 125 μL of mammalian protein extraction reagent (MPER; Fisher, 78501) was added to each well. Plates were shaken for 1 hour at room temperature and lysates transferred to individual 2 mL polypropylene tubes. Wells were then washed with 175 μL PBS, which was added to lysates. A chloroform:methanol solution (1:1 v/v, 450 μL) was added to each tube. All tubes were vortexed for 10 seconds and centrifuged at 14,000×g for 5 minutes at room temperature to separate the aqueous and organic phases. A 25 μL aliquot was removed from the bottom organic layer of each sample and added to 6 mL Optiphase Supermix scintillation fluid (PerkinElmer, 1200-439). Counts of ^14C were assessed by scintillation counting. DNL (counts of ^14C incorporated into lipids) was expressed as a percentage for compound treated cells relative to the vehicle control. IC50 values were determined using a non-linear regression (four parameter with variable slope) in GraphPad Prism.
Take `COc1cc(C(=O)N2CCC3(CC2)CC(=O)c2nc(C(C)(C)C)sc2C3)cc2c(C3CC3)nccc12` [Example 99]: the midpoint of inhibition, the IC50, lay at 10 nM.
`Cc1cc(C(=O)N2CCC3(CC2)CC(=O)c2nc(C(C)(C)C)sc2C3)cc2cc[nH]c12` [Example 17, 2-(tert-butyl)-1′-(7-methyl-1H-indole-5-carbonyl)-5H-spiro[benzo[d]thiazole-6,4′-piperidin]-4(7H)-one] gave an IC50 of 15.6 nM.
As to `CNc1ccc2c(C)cc(C(=O)N3CCC4(CC3)CC(=O)c3nc(C(C)(C)C)sc3C4)cc2n1` [Example 38, 2-(tert-butyl)-1′-(5-methyl-2-(methylamino)quinoline-7-carbonyl)-5H-spiro[benzo[d]thiazole-6,4′-piperidin]-4(7H)-one], half-maximal inhibition (IC50) required 14.2 nM.
